The NIST ThermoML archive (doi:10.1021/acs.jced.8b00681)

Test: mn = molality of the nth substance listed, in mol/kg
Conditions: 100 kPa, Liquid, Frequency=2 MHz, Linear variable-path acoustic interferometer

CO[C@H]1O[C@H](CO)[C@@H](O)[C@H](O)[C@H]1O [methyl-α-D-glucopyranoside] + O
speed of sound [m/s]
Conditions	m1 = 0.05678	m1 = 0.06847	m1 = 0.08732	m1 = 0.1192	m1 = 0.1293	m1 = 0.1466
288.15 K	1470.7	1471.7	1473.2	1475.8	1476.6	1478
298.15 K	1501.2	1502	1503.5	1506	1506.7	1508
308.15 K	1524	1524.9	1526.3	1528.6	1529.4	1530.6
318.15 K	1540.5	1541.3	1542.7	1545	1545.7	1546.9

O=P([O-])(O)O.[Na+] [sodium dihydrogen phosphate] + O
speed of sound [m/s]
Conditions	288.15 K	298.15 K	308.15 K	318.15 K
m1 = 0.5	1516.7	1547.3	1567.5	1582.6
m1 = 1	1563.2	1598	1618.9	1638.8
m1 = 1.5	1607.3	1649	1675	1704.8
m1 = 2	1649.2	1700.3	1735.7	1782.8

O=P([O-])([O-])[O-].[K+].[K+].[K+] [tripotassium phosphate] + O
speed of sound [m/s]
Conditions	288.15 K	298.15 K	308.15 K	318.15 K
m1 = 0.5	1586.2	1598.1	1609.9	1622.6
m1 = 1	1693.5	1698.6	1704.1	1708
m1 = 1.5	1789.2	1791.8	1793.8	1796
m1 = 2	1878.3	1882.5	1885.8	1889.4

N.O=P(O)(O)O [ammonium dihydrogen phosphate] + O
speed of sound [m/s]
Conditions	288.15 K	298.15 K	308.15 K	318.15 K
m1 = 0.5	1506.4	1534.2	1555.1	1570.8
m1 = 1	1554.5	1579.6	1598.1	1610.2
m1 = 1.5	1609.2	1629.9	1645.1	1654.4
m1 = 2	1672.6	1686.2	1697.2	1703.1

O=C[C@H](O)[C@@H](O)[C@H](O)[C@H](O)CO [D-glucose] + O
speed of sound [m/s]
Conditions	m1 = 0.054	m1 = 0.07085	m1 = 0.09905	m1 = 0.1196	m1 = 0.1221	m1 = 0.1388
288.15 K	–	1470.8	1472.7	1474.2	1474.3	1475.5
298.15 K	–	1501.1	1502.9	1504.2	1504.3	1505.3
308.15 K	1523.1	1524.7	1527.4	1529.3	1529.5	1531.1
318.15 K	–	1540.7	1543.2	1545	1545.2	1546.6

O=C[C@H](O)[C@H](O)[C@H](O)CO [D-ribose] + O
speed of sound [m/s]
Conditions	m1 = 0.04514	m1 = 0.06075	m1 = 0.08352	m1 = 0.112	m1 = 0.1348	m1 = 0.1523
288.15 K	1468.7	1469.7	1471.1	1472.9	1474.3	1475.4
298.15 K	1499.1	1499.9	1501	1502.5	1503.6	1504.5
308.15 K	1522	1522.7	1523.7	1525.1	1526.1	1526.9
318.15 K	1538.3	1538.9	1539.9	1541	1542	1542.8

OC[C@H]1OC(O)C[C@@H](O)[C@@H]1O (stereo partly drawn) [2-deoxy-D-glucose] + O
speed of sound [m/s]
Conditions	m1 = 0.04452	m1 = 0.06258	m1 = 0.08916	m1 = 0.09804	m1 = 0.1031	m1 = 0.1275
288.15 K	1468.5	1469.6	1471.1	1471.6	1471.9	1473.2
298.15 K	1499.2	1500.1	1501.4	1501.9	1502.1	1503.3
308.15 K	1522.1	1523	1524.3	1524.7	1524.9	1526.1
318.15 K	1538.2	1539	1540.1	1540.5	1540.7	1541.6

OC[C@H]1O[C@H](OC[C@H]2O[C@H](O[C@]3(CO)O[C@H](CO)[C@@H](O)[C@@H]3O)[C@H](O)[C@@H](O)[C@@H]2O)[C@H](O)[C@@H](O)[C@H]1O [D-raffinose] + O
speed of sound [m/s]
Conditions	m1 = 0.05849	m1 = 0.0723	m1 = 0.087	m1 = 0.1083	m1 = 0.1225	m1 = 0.143
288.15 K	1478.1	1481	1484.1	1488.6	1491.6	1496
298.15 K	1509	1512	1515.1	1519.7	1522.7	1527.1
308.15 K	1531.9	1534.8	1537.9	1542.3	1545.3	1549.7
318.15 K	1548.3	1551.1	1554.1	1558.5	1561.5	1565.8
